According to patent US5120828A, “Synthetic polypeptide with laminin activity” (Regents of the University of Minnesota, priority 1989, dated 1992):

Molecular target: T1, peptide AC15 (Mus musculus, UniProt P02469)
T1 construct: residues 202-218 from the B1 chain of laminin; The single letter amino acid code for this polypeptide is RIQNLLKITNLRIKFVK; made in house; host or cells: chemical solid-phase (Merrifield) synthesis, no expression host
Assay: Heparin/peptide interaction specificity: competition of 3H-heparin binding to coated peptide AC15 by glycosaminoglycans
Conditions: 3 μg per well of peptide AC15 coated; various amounts of non-radioactive glycosaminoglycan; 2 h, 37° C.; FIG. 9
Method: To check whether charge was the main factor in the interaction between heparin and peptide AC15 or whether the heparin structure was also critical to this interaction, heparin along with one other sulfated glucosaminoglycan, chondroitin sulfate were used in competition experiments. A standard amount of 3 μg per well of peptide AC15 was coated on 96-well plates as described above. Wells were treated for two hours with 2 mg/ml BSA in wash buffer. Then, a final volume of 50 μl was added to each well, containing a standard amount of ^3 H-heparin (5,000 cpm per well) and various amounts of non-radioactive heparin, and chondroitin sulfate. After incubating for two hours at 37° C., the wells were washed and radioactivity was counted as described above in Example 1.

chondroitin sulfate
competition for the binding of tritiated heparin to peptide AC15: cannot mimic this effect even at very high concentrations

heparin
competition for the binding of tritiated heparin to peptide AC15: able to compete for the binding of tritiated heparin to peptide AC15 at very low concentrations
